Measured values taken from patent publication US20120156137A1, “COMPOSITION FOR TREATMENT OF ATOPIC DERMATITIS COMPRISING GLUCOSAMINE AND DERIVATIVES THEREOF AND A METHOD FOR TREATMENT OF ATOPIC DERMATITIS USING THEM” (priority 2006, published 2012).

Key:
atopy patients = assay: Clinical test for therapeutic effects of glucosamine on atopy; assay type: in vivo, human; conditions: twenty atopy patients
Experimental: A clinical test was performed with twenty atopy patients in order to determine whether glucosamine has therapeutic effects on atopy in practice. The clinical test was conducted by the Department of Dermatology, Dongguk University Hospital (attending physician: A Y Lee; the clinical test was approved by an IRB of Dongguk University Hospital). Twenty atopy patients were dosed with glucosamine in the form of a tablet and a cream. In brief, glucosamine was orally administered at a daily dose of 500 mg for a period of two weeks. The cream (5% glucosamine) was topically applied to a desired site of the skin twice a day for a period of four weeks.

[1] = system: TPA-induced mouse ear edema model; assay: Anti-inflammatory activity of glucosamine topically applied to the TPA-induced mouse ear edema model; assay type: in vivo; conditions: male ICR mice; topical 0.5%, 1% or 2% glucosamine 15 min and 6 hrs after TPA; read 24 hrs after TPA
Experimental: Ear edema was induced in mice using 12-O-tetradecanoylphorbol 13-acetate (TPA), as follows. TPA was prepared at 2.5[…]/20[…] in acetone. ICR mice were prepared one week before this test and allowed free access to food and water in order to minimize the stress of transport. 20[…] of the TPA solution was applied onto right ears of male ICR mice (7 weeks old). After 24 hrs, mice were sacrificed by cervical dislocation, and the right ears were punched using a 6-mm biopsy punch. The ear punches were weighed using a microbalance, finely teased, and subjected to a myeloperoxidase (MPO) assay. Thirty male ICR mice (7 weeks old, weighing 25-32 g) were divided into six groups, each of which consisted of five mice. Experimental animals were allowed free access to food and water for one week in order to minimize the stress of transport. Glucos amine and a control drug were diluted in sterile distilled water and then diluted 1:9 in acetone. Group 1 was not treated with TPA or any drug. Group 2 was treated with TPA alone on the right ear skin thereof. Group 3 was topically treated with TPA, and then with 20[…] of 0.5% glucosamine in sterile distilled water/acetone (1:9) 15 min and 6 hrs after TPA application. According to the same procedure as in Group 3, Group 4 was topically treated with 1% glucosamine, and Group 5 with 2% glucosamine. […]

transglutaminase = conditions: as described in Korean Pat. Application No. 10-2006-56942; cited from earlier work
[2] = system: TPA-induced mouse ear edema model; assay: Anti-inflammatory activity of glucosamine orally administered to the TPA-induced mouse ear edema model; assay type: in vivo; conditions: male ICR mice; oral 5, 10 or 20 mg/kg glucosamine 15 min and 6 hrs after TPA; read 24 hrs after TPA
Experimental: Ear edema was induced in mice using 12-O-tetradecanoylphorbol 13-acetate (TPA), as follows. TPA was prepared at 2.5[…]/20[…] in acetone. ICR mice were prepared one week before this test and allowed free access to food and water in order to minimize the stress of transport. 20[…] of the TPA solution was applied onto right ears of male ICR mice (7 weeks old). After 24 hrs, mice were sacrificed by cervical dislocation, and the right ears were punched using a 6-mm biopsy punch. The ear punches were weighed using a microbalance, finely teased, and subjected to a myeloperoxidase (MPO) assay. Thirty five male ICR mice (7 weeks old, weighing 25-32 g) were divided into seven groups, each of which consisted of five mice. Experimental animals were allowed free access to food and water for one week in order to minimize the stress of transport. Glucosamine and a control drug were diluted in sterile physiological saline. Group 1 was not treated with TPA or any drug. Group 2 was treated with TPA alone on the right ear skin thereof. Group 3 was topically applied with TPA, and then orally administered through a sonde with 0.5 ml of glucosamine in sterile physiological saline 15 min and 6 hrs after TPA application. […]

SMILES: N[C@H]1C(O)O[C@H](CO)[C@@H](O)[C@@H]1O (some centres unmarked) [glucosamine]
- therapeutic effects on atopy, external use (FIG. 5) (atopy patients; cream (5% glucosamine) topically twice a day for four weeks): significant therapeutic effects on atopy
- therapeutic effects on atopy, oral administration (FIG. 5) (atopy patients; tablet, oral daily dose 500 mg for two weeks): significant therapeutic effects on atopy
- inhibition of acute inflammation (ear punch weight and MPO activity, FIGS. 1 and 2) [1]: inhibit acute inflammation regardless of concentrations thereof
- inhibitory activity toward transglutaminase (transglutaminase): has inhibitory activity toward transglutaminase
- inhibition of acute inflammation (ear punch weight and MPO activity, FIGS. 3 and 4) [2]: inhibited acute inflammation regardless of the concentration thereof
